According to patent publication US8664257B2, “Oxygen-substituted 3-heteroaroylamino-propionic acid derivatives and their use as pharmaceuticals” (Sanofi, priority 2010, dated 2014):

biological target: T1, Recombinant human cathepsin A (Homo sapiens, UniProt P10619); assay: Cathepsin A inhibitory activity; assay type: biochemical; details: pharmacological test "Cathepsin A inhibitory activity"; IC50 given as class A/B/C; read-out: Activity (2): Cathepsin A inhibitory activity, IC50 class
T1 construct: Recombinant human cathepsin A (residues 29-480, with a C-terminal 10-His tag); 10-His (C); purchased R&D Systems 1049-SE
T1 sequence (P10619 29-312 limits assumed): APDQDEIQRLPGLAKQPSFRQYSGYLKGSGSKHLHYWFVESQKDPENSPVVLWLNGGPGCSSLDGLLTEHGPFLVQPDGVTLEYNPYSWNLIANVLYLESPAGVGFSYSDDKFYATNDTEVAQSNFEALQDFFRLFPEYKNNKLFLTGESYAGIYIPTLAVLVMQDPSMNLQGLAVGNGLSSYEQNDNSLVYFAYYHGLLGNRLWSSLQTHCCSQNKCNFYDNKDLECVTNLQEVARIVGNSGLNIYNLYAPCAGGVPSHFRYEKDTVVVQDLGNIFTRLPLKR
T1 sequence (P10619 327-480 limits assumed): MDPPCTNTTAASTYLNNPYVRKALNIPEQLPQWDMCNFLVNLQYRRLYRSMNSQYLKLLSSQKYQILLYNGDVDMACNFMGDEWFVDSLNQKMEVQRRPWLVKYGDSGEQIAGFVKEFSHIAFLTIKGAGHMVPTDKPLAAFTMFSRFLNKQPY
How it was run: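 Read-out was microfluidic separation of cleaved vs. uncleaved Bodipy FL-bradykinin (2 μM), giving turnover, % inhibition and IC50. Compound and 833 ng/ml enzyme met for 15 min RT in pH 5.5 MES/DTT before substrate (15 min RT). The 29-480 His-tagged human enzyme was first activated by cathepsin L, then E-64 (10 μM).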

SMILES	IC50 [nM]
O=C(O)C[C@H](NC(=O)c1cc(O)n(-c2cccc(Cl)c2)n1)c1c(F)cccc1F [Example 265]	100 to 1000
COc1ccc([C@H](CC(=O)O)NC(=O)c2cc(O)n(-c3ccccc3)n2)cn1 [Example 144]	100 to 1000
O=C(O)CC(NC(=O)c1cc(O)n(-c2ccc(F)cc2F)n1)c1cccc(Cl)c1Cl (stereo not drawn) [Example 186]	100 to 1000
O=C(O)CC(NC(=O)c1cc(O)n(-c2cccc(Cl)c2)n1)c1ccc(-c2ccc(F)cc2)cc1 (stereo not drawn) [Example 267]	1000 to 30000
COc1ccc(C(CC(=O)O)NC(=O)c2cc(O)n(-c3ccccc3Cl)n2)c(Cl)c1 (stereo not drawn) [Example 210]	100 to 1000
COc1ccc(C(CC(=O)O)NC(=O)c2cc(O)n(-c3ccccc3)n2)c(Cl)c1 (stereo not drawn) [Example 162]	100 to 1000
O=C(O)C[C@H](NC(=O)c1cc(O)n(-c2ccc(F)cc2F)n1)c1ccc(Cl)cc1Cl [Example 201]	100 to 1000
N#Cc1cccc([C@H](CC(=O)O)NC(=O)c2cc(O)n(-c3ccccc3)n2)c1 [Example 160]	1000 to 30000

same assay, conditions: read-out: Activity (2): Cathepsin A inhibitory activity (IC50 class)

SMILES	IC50 [nM]
CC(C)(C)[C@](C)(O)COc1cc(C(=O)NC(CC(=O)O)C2CCCCC2)nn1-c1ccccc1F (stereo partly drawn) [Example 773, 3-Cyclohexyl-3-{[1-(2-fluoro-phenyl)-5-((S)-2-hydroxy-2,3,3-trimethyl-butoxy)-1H-pyrazole-3-carbonyl]-amino}-propionic acid]	< 100
CCOc1cc(C(=O)NC(CC(=O)O)c2ccc(F)cc2C)nn1-c1ccccc1F (stereo not drawn) [Example 718]	< 100
Cc1cccc([C@H](CC(=O)O)NC(=O)c2cc(OC[C@@H](O)C(C)(C)C)n(-c3ccccc3F)n2)c1 [Example 792, (S)-3-{[1-(2-Fluoro-phenyl)-5-((S)-2-hydroxy-3,3-dimethyl-butoxy)-1H-pyrazole-3-carbonyl]-amino}-3-m-tolyl-propionic acid]	< 100
COc1cc(C(=O)NC(CC(=O)O)c2ccc(-c3ccccn3)cc2)nn1-c1ccccc1F (stereo not drawn) [Example 598]	< 100
CCOc1cc(C(=O)N[C@@H](CC(=O)O)c2ccc(C#N)cc2)nn1-c1ccccc1F [Example 710]	100 to 1000
CC(C)C(C)(O)COc1cc(C(=O)N[C@@H](CC(=O)O)c2ccccc2Cl)nn1-c1ccccc1F (stereo partly drawn) [Example 775, (S)-3-(2-Chloro-phenyl)-3-{[1-(2-fluoro-phenyl)-5-(2-hydroxy-2,3-dimethyl-butoxy)-1H-pyrazole-3-carbonyl]-amino}-propionic acid]	< 100
Cc1ccccc1[C@H](CC(=O)O)NC(=O)c1cc(OC[C@H](O)C2CC2)n(-c2ccccc2F)n1 (single isomer, unassigned) [Example 760]	< 100
Cc1nc(COc2cc(C(=O)N[C@@H](CC(=O)O)c3ccccc3C)nn2-c2ccccc2F)cs1 [Example 646]	< 100
COc1cc(C(=O)N[C@@H](CC(=O)O)c2ccc(C#N)cc2)nn1-c1ccccc1F [Example 668]	100 to 1000
Cc1ccccc1[C@H](CC(=O)O)NC(=O)c1cc(OCC2CC2)n(-c2ccccc2F)n1 [Example 612]	< 100
Cc1ccccc1[C@H](CC(=O)O)NC(=O)c1cc(OC[C@](C)(O)C(C)C)n(-c2ccccc2F)n1 [Example 765, (S)-3-{[1-(2-Fluoro-phenyl)-5-((R)-2-hydroxy-2,3-dimethyl-butoxy)-1H-pyrazole-3-carbonyl]-amino}-3-o-tolyl-propionic acid]	< 100
Cc1ccc([C@H](CC(=O)O)NC(=O)c2cc(OC[C@@](C)(O)C(C)C)n(-c3ccccc3F)n2)c(C)c1 [Example 772, (S)-3-(2,4-Dimethyl-phenyl)-3-{[1-(2-fluoro-phenyl)-5-((S)-2-hydroxy-2,3-dimethyl-butoxy)-1H-pyrazole-3-carbonyl]-amino}-propionic acid]	< 100
Cc1ccccc1[C@H](CC(=O)O)NC(=O)c1cc(OCC2(C)COC2)n(-c2ccccc2F)n1 [Example 663]	< 100
Cc1ccc([C@H](CC(=O)O)NC(=O)c2cc(OCC(C)(O)c3ccccc3)n(-c3ccccc3F)n2)cc1 (stereo partly drawn) [Example 636]	< 100
Cc1ccccc1[C@H](CC(=O)O)NC(=O)c1cc(OCCc2ccccc2)n(-c2ccccc2F)n1 [Example 625]	< 100
O=C(O)CC(NC(=O)c1cc(O)n(-c2ccccc2Cl)n1)c1ccc(-n2cccn2)cc1 (stereo not drawn) [Example 580]	100 to 1000
O=C(O)CC(NC(=O)c1cc(O)n(Cc2ccccc2)n1)c1ccc(-c2ccc(F)cc2)cc1 (stereo not drawn) [Example 538]	100 to 1000

same assay, conditions: read-out: Activity (2): Cathepsin A inhibitory activity, IC50 class

SMILES	IC50 [nM]
O=C(O)C[C@H](NC(=O)c1cc(O)n(-c2ccc(F)cc2)n1)c1ccccc1C(F)(F)F [Example 367]	100 to 1000
O=C(O)CC1(NC(=O)c2cc(O)n(-c3ccccc3)n2)CCCC1 [Example 5]	1000 to 30000
O=C(O)CC(NC(=O)c1cc(O)n(-c2ccccc2F)n1)c1cccc(Cl)c1 (stereo not drawn) [Example 396]	100 to 1000
COc1ccc([C@H](CC(=O)O)NC(=O)c2cc(O)n(-c3ccc(Cl)cc3)n2)cn1 [Example 299]	1000 to 30000
COc1cccc(C(CC(=O)O)NC(=O)c2cc(O)n(-c3ccccc3)n2)c1 (stereo not drawn) [Example 9]	100 to 1000
O=C(O)CC(NC(=O)c1cc(O)n(-c2cccc(F)c2)n1)c1cccc(Cl)c1F (stereo not drawn) [Example 322]	100 to 1000
Cc1ccc(C(CC(=O)O)NC(=O)c2cc(O)n(-c3ccc(F)c(Cl)c3)n2)c(C)c1 (stereo not drawn) [Example 91]	1000 to 30000
CC(C)(CC(=O)O)NC(=O)c1cc(O)n(-c2ccccc2)n1 [Example 4]	1000 to 30000
COc1ccccc1[C@H](CC(=O)O)NC(=O)c1cc(OCC(C)(O)C(C)C)n(-c2ccccc2F)n1 (stereo partly drawn) [Example 811, (S)-3-{[1-(2-Fluoro-phenyl)-5-(2-hydroxy-2,3-dimethyl-butoxy)-1H-pyrazole-3-carbonyl]-amino}-3-(2-methoxy-phenyl)-propionic acid]	< 100
Cc1ccc(C)c(-n2nc(C(=O)NC(CC(=O)O)c3ccccc3Cl)cc2O)c1 (stereo not drawn) [Example 39]	1000 to 30000
CCCCC(CC(=O)O)NC(=O)c1cc(O)n(-c2ccccc2)n1 (stereo not drawn) [Example 14]	100 to 1000
CC(C)(C)[C@@](C)(O)COc1cc(C(=O)NC(CC(=O)O)C2CCCCC2)nn1-c1ccccc1F (stereo partly drawn) [Example 820, 3-Cyclohexyl-3-{[1-(2-fluoro-phenyl)-5-((R)-2-hydroxy-2,3,3-trimethyl-butoxy)-1H-pyrazole-3-carbonyl]-amino}-propionic acid]	< 100
CC(C)(C)[C@@](C)(O)COc1cc(C(=O)N[C@@H](CC(=O)O)c2ccccc2F)nn1-c1ccccc1F [Example 854, (S)-3-(2-Fluoro-phenyl)-3-{[1-(2-fluoro-phenyl)-5-((R)-2-hydroxy-2,3,3-trimethyl-butoxy)-1H-pyrazole-3-carbonyl]-amino}-propionic acid]	100 to 1000
O=C(O)C[C@H](NC(=O)c1cc(O)n(-c2ccc(Cl)cc2)n1)c1ccc(F)cc1 [Example 276]	1000 to 30000
CC(C)[C@](C)(O)COc1cc(C(=O)NC2(CC(=O)O)CCCC2)nn1-c1ccccc1F [Example 825, (1-{[1-(2-Fluoro-phenyl)-5-((S)-2-hydroxy-2,3-dimethyl-butoxy)-1H-pyrazole-3-carbonyl]-amino}-cyclopentyl)-acetic acid]	100 to 1000
CC(C)(C)[C@](C)(O)COc1cc(C(=O)N[C@@H](CC(=O)O)c2cccc(Cl)c2)nn1-c1ccccc1F [Example 798, (S)-3-(3-Chloro-phenyl)-3-{[1-(2-fluoro-phenyl)-5-((S)-2-hydroxy-2,3,3-trimethyl-butoxy)-1H-pyrazole-3-carbonyl]-amino}-propionic acid]	< 100
O=C(O)CC(NC(=O)c1cc(O)n(-c2ccc(F)cc2)n1)c1ccc(-c2ccc(F)cc2)cc1 (stereo not drawn) [Example 371]	100 to 1000
Cc1cccc([C@H](CC(=O)O)NC(=O)c2cc(O)n(-c3cccc(F)c3)n2)c1 [Example 317]	100 to 1000
O=C(O)C[C@H](NC(=O)c1cc(O)n(-c2cccc(F)c2)n1)c1ccc(Cl)cc1 [Example 331]	100 to 1000

same assay, conditions: recombinant human cathepsin A 833 ng/ml, Bodipy FL-labeled bradykinin 2 μM, pH 5.5; read-out: CATH-A IC50

SMILES	IC50 [nM]
COc1cccc(F)c1C(CC(=O)O)NC(=O)c1cc(O)n(-c2ccc(F)cc2F)n1 (stereo not drawn) [Example 449, 3-{[1-(2,4-Difluoro-phenyl)-5-hydroxy-1H-pyrazole-3-carbonyl]-amino}-3-(2-fluoro-6-methoxy-phenyl)-propionic acid]	176
O=C(O)CC(NC(=O)c1cc(O)n(-c2cccc(Cl)c2)n1)c1ccccc1SC(F)(F)F (stereo not drawn) [Example 467, 3-{[1-(3-Chloro-phenyl)-5-hydroxy-1H-pyrazole-3-carbonyl]-amino}-3-(2-trifluoromethylsulfanyl-phenyl)-propionic acid]	2250

same assay, conditions: recombinant human cathepsin A; read-out: Activity (2): Cathepsin A inhibitory activity, IC50 class

SMILES	IC50 [nM]
COc1ccc([C@H](CC(=O)O)NC(=O)c2cc(O)n(-c3cccc(F)c3)n2)cc1 [Example 427]	1000 to 30000
COc1cccc(F)c1C(CC(=O)O)NC(=O)c1cc(O)n(-c2ccc(F)cc2F)n1 (stereo not drawn) [Example 449, 3-{[1-(2,4-Difluoro-phenyl)-5-hydroxy-1H-pyrazole-3-carbonyl]-amino}-3-(2-fluoro-6-methoxy-phenyl)-propionic acid]	100 to 1000
Cc1ccccc1-n1nc(C(=O)NC(CC(=O)O)c2ccc(-c3ccc(F)cc3)cc2)cc1O (stereo not drawn) [Example 536]	< 100
O=C(O)CC(NC(=O)c1cc(O)n(-c2cccc(Cl)c2)n1)c1ccccc1SC(F)(F)F (stereo not drawn) [Example 467, 3-{[1-(3-Chloro-phenyl)-5-hydroxy-1H-pyrazole-3-carbonyl]-amino}-3-(2-trifluoromethylsulfanyl-phenyl)-propionic acid]	1000 to 30000
O=C(O)CC(NC(=O)c1cc(O)n(-c2ccc(F)cc2)n1)c1cccc2c1OC(F)(F)O2 (stereo not drawn) [Example 491]	100 to 1000
